Measurements: PubChem BioAssay (NCI)
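Assay format: 96-well plates, 48-hour exposure. GI50 is the concentration that inhibits growth by half. TGI: concentration producing complete growth inhibition.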

Experiments:
Test in all cases: NCI tumour cell line growth inhibition, 48 h
[1] = system: HOP-92 NSCLC
[2] = system: NCI-H460 lung
[3] = system: U251 CNS
[4] = system: DU-145 prostate
[5] = system: A498 renal
[6] = system: EKVX NSCLC
[7] = system: HOP-62 NSCLC
[8] = system: MDA-MB-231 breast
[9] = system: HL-60(TB) leukemia
[10] = system: CAKI-1 renal
[11] = system: SN12C renal

Row | SMILES | TGI [1] [µM] | TGI [2] [µM] | TGI [3] [µM] | TGI [4] [µM] | TGI [5] [µM] | TGI [6] [µM] | TGI [7] [µM] | TGI [8] [µM] | TGI [9] [µM] | TGI [10] [µM] | TGI [11] [µM] | GI50 [1] [µM] | GI50 [2] [µM] | GI50 [3] [µM] | GI50 [5] [µM] | GI50 [6] [µM] | GI50 [7] [µM] | GI50 [9] [µM] | GI50 [10] [µM] | GI50 [11] [µM]
1 | S=c1[nH]nc(NNc2ccccc2)n1Nc1ccccc1 | > 79.9 | > 54.6 | > 83.9 | > 100 | > 100 | > 100 | > 100 | > 100 | 57.2 | > 100 | > 100 |  |  |  |  |  |  |  |  | 
2 | O=c1ccn(C2OC(CN(O)CCC3C(CO)OC(n4ccc(=O)[nH]c4=O)C3O)C(O)C2O)c(=O)[nH]1 (configuration not stated) | > 100 | > 100 | > 100 | > 100 | > 100 | > 100 | > 100 | > 100 | > 100 | > 100 | > 100 |  |  |  |  |  |  |  |  | 
3 | O=C(CSC1=NNC2(C(=O)N1)c1ccccc1-c1ccccc12)NC(=S)Nc1ccccc1 | > 10 | > 10 |  | > 10 |  | > 10 | > 10 | > 10 | > 10 | > 10 | > 10 |  |  |  |  |  |  |  |  | 
4 | CC(=O)ON(C(C)=O)c1ccc(-c2nc3ccccc3s2)cc1C | > 100 | > 100 | > 100 | > 100 | 16.9 | > 100 | > 100 | > 100 |  | > 100 | > 100 |  |  |  |  |  |  |  |  | 
5 | Cc1c(C)c(S(=O)(=O)N(CCCCCON)OCCCN)c(C)c2c1OC(C)(C)CC2 | 23 | 22.4 | 25.7 | 17.5 | 28.3 | 24.7 | 31.8 | 30.4 | 17.3 | 16 | 32.4 |  |  |  |  |  |  |  |  | 
6 | COc1ccc(NC2CC(C)N(C(=O)c3ccccc3)O2)cc1 (configuration not stated) |  | > 10 |  | > 10 |  | > 10 | > 10 | > 10 | > 10 | > 10 | > 10 |  |  |  |  |  |  |  |  | 
7 | COC(=O)c1c(-c2ccccc2)c2sc3ccccc3n2c1N | 98 | > 100 | > 100 | > 100 | 91.1 | > 100 | > 100 | > 100 |  | > 100 | 96.1 |  |  |  |  |  |  |  |  | 
8 | Nc1nc(N)c2nc(CNc3ccc(C(=O)NC(CCCCNC(=O)c4ccccc4C(=O)O)C(=O)O)cc3)cnc2n1 (configuration not stated) | > 100 | > 100 | > 100 | > 100 | > 100 | > 100 | > 100 | > 100 | > 100 | > 100 | > 100 | > 100 | 0.00424 | 0.0385 | 0.0821 | 0.036 | 0.0305 | 0.00244 | 0.0237 | 0.0127
9 | Cn1c2ccccc2c(=O)c2[nH]c3ccccc3c21 | > 100 | > 100 | > 100 | > 100 | > 100 | > 100 | > 100 | > 100 |  | > 100 | > 100 |  |  |  |  |  |  |  |  | 
10 | c1ccc(CC2(c3cc4ccccc4[nH]3)OCCO2)nc1 | > 100 | > 100 | > 100 | > 100 | > 100 | > 100 | > 100 | > 100 | > 100 | > 100 | > 100 |  |  |  |  |  |  |  |  | 
11 | CC(C)C(NCc1c(O)ccc2c(-c3ccccc3)cc(=O)oc12)C(=O)O (configuration not stated) | > 100 | > 100 | > 100 | > 100 |  | > 100 | > 100 | > 100 | > 100 | > 100 | > 100 |  |  |  |  |  |  |  |  | 
12 | N#CC(C#N)=Cn1c(=S)[nH]c2ccccc21 | > 100 | > 100 | > 100 | > 100 | > 100 | > 100 | > 100 | > 100 | > 100 | > 100 | > 100 |  |  |  |  |  |  |  |  | 
13 | O=C(NNC(=O)c1ccccc1O)c1ccc(O)cc1 |  | > 100 | > 100 | > 100 | > 100 | > 100 | > 100 | 69.7 | > 100 | > 100 | > 100 |  |  |  |  |  |  |  |  | 
14 | CC(=O)c1sc(=N)n(-c2c(C)cccc2C)c1C |  | > 100 | > 100 | > 100 | > 100 | > 100 | > 100 | > 100 | > 100 |  | > 100 |  |  |  |  |  |  |  |  | 
15 | Cc1cc(-c2nc3cccc(F)c3s2)ccc1N | > 88.2 | > 100 | > 100 | > 100 | > 100 | > 100 | > 100 | > 100 | > 100 | > 100 | > 91.1 |  |  |  |  |  |  |  |  | 
16 | CN(C)Cc1cc(N=Nc2ccc(Cl)cc2)ccc1OC(=O)c1ccccc1 | 11.1 | 32.4 | 29.4 | 30.7 | 31.5 | 25.9 | 26.5 | 28.6 | 43.7 |  | 28.2 |  |  |  |  |  |  |  |  | 
17 | CC1=NN(C(=O)CC(=O)Nc2cccc(Cl)c2)C(=O)C1N=Nc1ccc(C(=O)O)cc1 (configuration not stated) | > 100 | > 100 | > 100 | > 100 | > 100 | > 100 | > 100 | > 100 | > 100 | > 100 | > 100 |  |  |  |  |  |  |  |  | 
18 | CN(C)CC1CN=C(NC(=O)Nc2ccccc2)O1 (configuration not stated) | > 100 | > 100 | > 100 | > 100 | > 100 | > 100 | > 100 | > 100 | > 100 | > 100 | > 100 |  |  |  |  |  |  |  |  | 
19 | O=C1c2ccccc2-c2c1c(-c1cccc(Br)c1)nc1ccc3ccccc3c21 |  | > 100 | > 100 | > 100 | > 100 | > 100 | > 100 | > 100 |  | > 100 | > 100 |  |  |  |  |  |  |  |  | 
20 | Cc1ncc([N+](=O)[O-])n1CCNC(=O)Cn1c([N+](=O)[O-])cnc1C |  | > 100 | > 100 | > 100 | > 100 |  | > 100 | > 100 | > 100 | > 100 | > 100 |  |  |  |  |  |  |  |  | 
